ChEMBL document CHEMBL3885881, “DrugMatrix”

Species on record: Rattus norvegicus
Assay: DrugMatrix - Regimen: Daily Repeat
Format: toxicity, organism-based, Sprague-Dawley
Design: regimen Daily Repeat, gender Male, age 6-8 weeks
Conditions: in vivo, iv, vehicle 100 % SALINE; for ABSOLUTE BASOPHIL / ABSOLUTE EOSINOPHIL / ABSOLUTE LYMPHOCYTE / ABSOLUTE MONOCYTE / ABSOLUTE SEGMENTED NEUTROPHIL / BASOPHIL / EOSINOPHIL / ERYTHROCYTE COUNT / HEMATOCRIT / HEMOGLOBIN / LEUKOCYTE COUNT / LYMPHOCYTE / MEAN CORPUSCULAR HEMOGLOBIN / MEAN CORPUSCULAR HEMOGLOBIN CONCENTRATION / MEAN CORPUSCULAR VOLUME / MONOCYTE / NEUTROPHIL / NUCLEATED RED BLOOD CELLS / PLATELET COUNT: tissue Blood; for ALANINE AMINOTRANSFERASE / ALBUMIN / ALKALINE PHOSPHATASE / ASPARTATE AMINOTRANSFERASE / BLOOD UREA NITROGEN / CARBON DIOXIDE / CHLORIDE / CHOLESTEROL / CREATINE PHOSPHOKINASE / CREATININE / GLUCOSE / LACTATE DEHYDROGENASE / LIPASE / PHOSPHORUS / POTASSIUM / SODIUM / TOTAL BILIRUBIN / TOTAL PROTEIN / URIC ACID: tissue Plasma
[1] = 0 mg/kg, 72 h, dose level Control, time 3 day
[2] = 0 mg/kg, 120 h, dose level Control, time 5 day
[3] = 10 mg/kg, 72 h, dose level Low, time 3 day

## O=C(O)P(=O)(O)O [FOSCARNET]
[1]
  ABSOLUTE BASOPHIL: 0 CELLS/uL
  ABSOLUTE EOSINOPHIL: 247.67 CELLS/uL
  ABSOLUTE LYMPHOCYTE: 13190.83 CELLS/uL
  ABSOLUTE MONOCYTE: 307.67 CELLS/uL
  ABSOLUTE SEGMENTED NEUTROPHIL: 1220.5 CELLS/uL
  BASOPHIL: 0%
  EOSINOPHIL: 1.67%
  ERYTHROCYTE COUNT: 5.47 x10E6/uL
  HEMATOCRIT: 33.98%
  HEMOGLOBIN: 12.65 G/DL
  LEUKOCYTE COUNT: 14.97 x10E3/uL
  LYMPHOCYTE: 88.17%
  MEAN CORPUSCULAR HEMOGLOBIN: 23.17 pg
  MEAN CORPUSCULAR HEMOGLOBIN CONCENTRATION: 37.23 G/DL
  MEAN CORPUSCULAR VOLUME: 62.25 fL
  MONOCYTE: 2%
  NEUTROPHIL: 8.17%
  NUCLEATED RED BLOOD CELLS: 0 /100WBC
  PLATELET COUNT: 1307.17 x10E3/uL
  ALANINE AMINOTRANSFERASE: 39.67 u/L
  ALBUMIN: 4.08 G/DL
  ALKALINE PHOSPHATASE: 383.17 u/L
  ASPARTATE AMINOTRANSFERASE: 88.83 u/L
  BLOOD UREA NITROGEN: 18.5 mg/dL
  CARBON DIOXIDE: 27.5 mmol/L
  CHLORIDE: 103 MEQ/L
  CHOLESTEROL: 67.33 mg/dL
  CREATINE PHOSPHOKINASE: 414.67 u/L
  CREATININE: 0.19 mg/dL
  GLUCOSE: 149.33 mg/dL
  LACTATE DEHYDROGENASE: 536.83 u/L
  LIPASE: 8.83 u/L
  PHOSPHORUS: 11.13 mg/dL
  POTASSIUM: 6.23 MEQ/L
  SODIUM: 144.42 MEQ/L
  TOTAL BILIRUBIN: 0.18 mg/dL
  TOTAL PROTEIN: 5.57 G/DL
  URIC ACID: 1.23 mg/dL
[2]
  ABSOLUTE BASOPHIL: 0 CELLS/uL
  ABSOLUTE EOSINOPHIL: 158.83 CELLS/uL
  ABSOLUTE LYMPHOCYTE: 13517.17 CELLS/uL
  ABSOLUTE MONOCYTE: 352.67 CELLS/uL
  ABSOLUTE SEGMENTED NEUTROPHIL: 1104.67 CELLS/uL
  BASOPHIL: 0%
  EOSINOPHIL: 1%
  ERYTHROCYTE COUNT: 5.73 x10E6/uL
  HEMATOCRIT: 36.85%
  HEMOGLOBIN: 13.67 G/DL
  LEUKOCYTE COUNT: 15.13 x10E3/uL
  LYMPHOCYTE: 89.5%
  MEAN CORPUSCULAR HEMOGLOBIN: 23.87 pg
  MEAN CORPUSCULAR HEMOGLOBIN CONCENTRATION: 37.1 G/DL
  MEAN CORPUSCULAR VOLUME: 64.33 fL
  MONOCYTE: 2.33%
  NEUTROPHIL: 7.17%
  NUCLEATED RED BLOOD CELLS: 0.17 /100WBC
  PLATELET COUNT: 1266 x10E3/uL
  ALANINE AMINOTRANSFERASE: 49.17 u/L
  ALBUMIN: 4.22 G/DL
  ALKALINE PHOSPHATASE: 352.67 u/L
  ASPARTATE AMINOTRANSFERASE: 95.17 u/L
  BLOOD UREA NITROGEN: 18.83 mg/dL
  CARBON DIOXIDE: 25.67 mmol/L
  CHLORIDE: 102.67 MEQ/L
  CHOLESTEROL: 66.83 mg/dL
  CREATINE PHOSPHOKINASE: 550.33 u/L
  CREATININE: 0.23 mg/dL
  GLUCOSE: 186.17 mg/dL
  LACTATE DEHYDROGENASE: 471.33 u/L
  LIPASE: 8.67 u/L
  PHOSPHORUS: 12.3 mg/dL
  POTASSIUM: 6.35 MEQ/L
  SODIUM: 143.57 MEQ/L
  TOTAL BILIRUBIN: 0.18 mg/dL
  TOTAL PROTEIN: 6.05 G/DL
  URIC ACID: 2 mg/dL
[3]
  ABSOLUTE BASOPHIL: 0 CELLS/uL
  ABSOLUTE EOSINOPHIL: 119 CELLS/uL
  ABSOLUTE LYMPHOCYTE: 13526 CELLS/uL
  ABSOLUTE MONOCYTE: 339.33 CELLS/uL
  ABSOLUTE SEGMENTED NEUTROPHIL: 1849 CELLS/uL
  BASOPHIL: 0%
  EOSINOPHIL: 1%
  ERYTHROCYTE COUNT: 5.59 x10E6/uL
  HEMATOCRIT: 35.27%
  HEMOGLOBIN: 13.4 G/DL
  LEUKOCYTE COUNT: 15.83 x10E3/uL
  LYMPHOCYTE: 86%
  MEAN CORPUSCULAR HEMOGLOBIN: 24.03 pg
  MEAN CORPUSCULAR HEMOGLOBIN CONCENTRATION: 38 G/DL
  MEAN CORPUSCULAR VOLUME: 63.2 fL
  MONOCYTE: 2%
  NEUTROPHIL: 11%
  NUCLEATED RED BLOOD CELLS: 0.33 /100WBC
  PLATELET COUNT: 1244.67 x10E3/uL
  ALANINE AMINOTRANSFERASE: 51.33 u/L
  ALBUMIN: 4.37 G/DL
  ALKALINE PHOSPHATASE: 431.67 u/L
  ASPARTATE AMINOTRANSFERASE: 102 u/L
  BLOOD UREA NITROGEN: 16.67 mg/dL
  CARBON DIOXIDE: 26.67 mmol/L
  CHLORIDE: 102 MEQ/L
  CHOLESTEROL: 79.67 mg/dL
  CREATINE PHOSPHOKINASE: 558.33 u/L
  CREATININE: 0.23 mg/dL
  GLUCOSE: 150.33 mg/dL
  LACTATE DEHYDROGENASE: 837 u/L
  LIPASE: 9.33 u/L
  PHOSPHORUS: 11.7 mg/dL
  POTASSIUM: 6.65 MEQ/L
  SODIUM: 144.07 MEQ/L
  TOTAL BILIRUBIN: 0.23 mg/dL
  TOTAL PROTEIN: 5.83 G/DL
  URIC ACID: 1.27 mg/dL
